Values quoted from earlier work, collected in patent US9168282B2, “Method for treating neuronal damage and neurological diseases” (priority 2009, dated 2015).

What was measured:
[1] = tested on: herpes zoster patients; conditions: 500 mg of Famciclovir three times per day, 7 days, meta-analysis data (Can Fam Physician 2008)
[2] = tested on: herpes zoster patients; conditions: Famciclovir 500 mg three times per day, 7 days, meta-analysis data (Can Fam Physician 2008)

In the case of `CC(=O)OCC(CCn1cnc2cnc(N)nc21)COC(C)=O` [Famciclovir], the “Median of time required for generating scab over the whole skin lesion” value [1] is given as 5 days and the “Median of time required for relieving pain” value [2] is given as 20 days.
